24 molecules from patent US10047104B2, “Bicyclic heterocyclyl derivatives as IRAK4 inhibitors” (Aurigene Discovery Technologies Limited, priority 2014, dated 2018) can be followed below.

Structures can show the parent of a compound that is named as a salt.

For the assay, the target named is T1, recombinant IRAK-4 kinase (Homo sapiens, UniProt Q9NWZ3).
T1 construct: purchased Millipore, USA
T1 sequence (Q9NWZ3 1-460): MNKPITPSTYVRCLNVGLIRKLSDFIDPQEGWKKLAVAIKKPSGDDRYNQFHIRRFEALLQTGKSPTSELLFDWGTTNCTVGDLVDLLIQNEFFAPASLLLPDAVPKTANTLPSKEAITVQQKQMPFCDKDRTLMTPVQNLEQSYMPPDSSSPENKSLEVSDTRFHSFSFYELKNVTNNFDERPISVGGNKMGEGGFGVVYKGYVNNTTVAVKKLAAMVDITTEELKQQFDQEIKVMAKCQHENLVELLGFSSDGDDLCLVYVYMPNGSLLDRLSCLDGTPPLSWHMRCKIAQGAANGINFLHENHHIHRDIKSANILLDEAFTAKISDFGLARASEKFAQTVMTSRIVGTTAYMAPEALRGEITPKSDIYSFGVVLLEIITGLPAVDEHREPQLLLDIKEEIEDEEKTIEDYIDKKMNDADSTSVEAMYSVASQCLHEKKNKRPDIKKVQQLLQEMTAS
As to the kind of experiment: IRAK-4 Biochemical Assay (TR-FRET). To be noted: 5 ng IRAK-4 kinase, 100 nM Biotin Histone H3, 20 μM ATP, 30 minutes pre-incubation, read-out: IC50 values for IRAK4 activity. As for the experimental part: Compounds were tested for their potential to inhibit IRAK-4 enzyme in a TR-FRET assay using recombinant IRAK-4 kinase from Millipore, USA. The assay buffer was 50 mM Tris-HCl pH 7.5, 20 mM MgCl2, 1 mM EGTA, 2 mM DTT, 3 mM MnCl2 and 0.01% Tween20. 5 ng of IRAK-4 kinase was used for the assay. After pre-incubation of enzyme with test compound for 30 minutes at room temperature, a substrate mix containing 100 nM Biotin Histone H3 (Millipore, USA) and 20 μM ATP (Sigma, USA) was added and the reaction was incubated for 30 minutes. Post incubation, the reaction was stopped by the addition of stop mix containing 40 mM EDTA, 1 nM of Europium-Anti-Phospho-Histone H3 (Ser10) antibody (Perkin Elmer, USA) and 20 nM Sure Light Allophycocyanin-Streptavidin (Perkin Elmer, USA).
Consider `Cc1cc(-c2nc(C(=O)Nc3cc4oc(N5CCOCC5)nc4nc3N3CCOCC3)co2)ccn1` [Example 24, N-(2,5-dimorpholinooxazolo[4,5-b]pyridin-6-yl)-2-(2-methylpyridin-4-yl)oxazole-4-carboxamide], for which the IC50 is under 50 nM. As for `Cc1cc(-c2nc(C(=O)Nc3cc4oc(N5CCOCC5)nc4nc3N3CCN(C)CC3)co2)ccn1` [Example 25, N-(5-(4-methylpiperazin-1-yl)-2-morpholinooxazolo[4,5-b]pyridin-6-yl)-2-(2-methylpyridin-4-yl)oxazole-4-carboxamide], the 50% inhibitory concentration (IC50) is under 50 nM. The result for `COc1ccc(-c2nc(C(=O)Nc3cc4oc(N5CCCCC5)nc4nc3N3CCCCC3)co2)cn1` [Example 26, N-(2,5-di(piperidin-1-yl)oxazolo[4,5-b]pyridin-6-yl)-2-(6-methoxypyridin-3-yl)oxazole-4-carboxamide] reads under 50 nM; that for `Cc1ncccc1-c1nc(C(=O)Nc2cc3oc(N4CCCCC4)nc3nc2N2CCCCC2)co1` [Example 27, N-(2,5-di(piperidin-1-yl)oxazolo[4,5-b]pyridin-6-yl)-2-(2-methylpyridin-3-yl)oxazole-4-carboxamide], under 50 nM; that for `O=C(Nc1cc2oc(N3CCCCC3)nc2nc1N1CCCCC1)c1coc(-c2cccnc2O)n1` [Example 28, N-(2,5-di(piperidin-1-yl)oxazolo[4,5-b]pyridin-6-yl)-2-(2-hydroxypyridin-3-yl)oxazole-4-carboxamide], over 100 nM. The result for `O=C(Nc1cc2oc(N3CCOCC3)nc2nc1N1CCCCC1)c1coc(-c2cccnc2O)n1` [Example 29, 2-(2-hydroxypyridin-3-yl)-N-(2-morpholino-5-(piperidin-1-yl)oxazolo[4,5-b]pyridin-6-yl)oxazole-4-carboxamide] reads under 50 nM; that for `O=C(Nc1cc2oc(N3CCCCC3)nc2nc1N1CCCCC1)c1coc(-c2ccc(O)nc2)n1` [Example 30, N-(2,5-di(piperidin-1-yl)oxazolo[4,5-b]pyridin-6-yl)-2-(6-hydroxypyridin-3-yl)oxazole-4-carboxamide], over 100 nM. `Cc1ncccc1-c1nc(C(=O)Nc2cc3oc(N4CCOCC4)nc3nc2N2CCCCC2)co1` [Example 32, 2-(2-methylpyridin-3-yl)-N-(2-morpholino-5-(piperidin-1-yl)oxazolo[4,5-b]pyridin-6-yl)oxazole-4-carboxamide]: the IC50 is under 50 nM. For `Cc1cnccc1-c1nc(C(=O)Nc2cc3oc(N4CCOCC4)nc3nc2N2CCCCC2)co1` [Example 33, 2-(3-methylpyridin-4-yl)-N-(2-morpholino-5-(piperidin-1-yl)oxazolo[4,5-b]pyridin-6-yl)oxazole-4-carboxamide], the 50% inhibitory concentration (IC50) is under 50 nM. Next, `Cc1cnccc1-c1nc(C(=O)Nc2cc3oc(N4CCCCC4)nc3nc2N2CCCCC2)co1` [Example 34, N-(2,5-di(piperidin-1-yl)oxazolo[4,5-b]pyridin-6-yl)-2-(3-methylpyridin-4-yl)oxazole-4-carboxamide]: under 50 nM. The result for `Cc1ccc(-c2nc(C(=O)Nc3cc4oc(N5CCOCC5)nc4nc3N3CCCCC3)co2)cn1` [Example 35, 2-(6-methylpyridin-3-yl)-N-(2-morpholino-5-(piperidin-1-yl)oxazolo[4,5-b]pyridin-6-yl)oxazole-4-carboxamide] reads under 50 nM; that for `Cc1ccc(-c2nc(C(=O)Nc3cc4oc(N5CCCCC5)nc4nc3N3CCCCC3)co2)cn1` [Example 37, N-(2,5-di(piperidin-1-yl)oxazolo[4,5-b]pyridin-6-yl)-2-(6-methylpyridin-3-yl)oxazole-4-carboxamide], under 50 nM; that for `N[C@H]1CCN(c2nc(C(=O)Nc3cc4oc(N5CCOCC5)nc4nc3N3CCCCC3)co2)C1` [Example 42, (S)-2-(3-aminopyrrolidin-1-yl)-N-(2-morpholino-5-(piperidin-1-yl)oxazolo[4,5-b]pyridin-6-yl)oxazole-4-carboxamide], 50 to 100 nM.

Regarding `N[C@H]1CCN(c2nc(C(=O)Nc3cc4oc(N5CCOCC5)nc4nc3C3CC3)co2)C1` [Example 47, (S)-2-(3-aminopyrrolidin-1-yl)-N-(5-cyclopropyl-2-morpholinooxazolo[4,5-b]pyridin-6-yl)oxazole-4-carboxamide], the IC50 is under 50 nM. For the molecule `Cc1cc(-c2nc(C(=O)Nc3cc4oc(N5CCCC5)nc4nc3N3CCCCC3)co2)ccn1` [Example 48, 2-(2-methylpyridin-4-yl)-N-(5-(piperidin-1-yl)-2-(pyrrolidin-1-yl)oxazolo[4,5-b]pyridin-6-yl)oxazole-4-carboxamide hydrochloride], the IC50 is over 100 nM. Take `Cn1cc(-c2cccc(C(=O)Nc3cc4sc(N5CCCCC5)nc4nc3N3CCCCC3)n2)cn1` [Example 50, N-(2,5-di(piperidin-1-yl)thiazolo[4,5-b]pyridin-6-yl)-6-(1-methyl-1H-pyrazol-4-yl)picolinamide hydrochloride]: the IC50 was under 50 nM.

As to `Cn1cc(-c2cccc(C(=O)Nc3cc4sc(N5CCOCC5)nc4nc3N3CCCCC3)n2)cn1` [Example 51, 6-(1-methyl-1H-pyrazol-4-yl)-N-(2-morpholino-5-(piperidin-1-yl)thiazolo[4,5-b]pyridin-6-yl)picolinamide], the half-maximal inhibitory concentration (IC50) was under 50 nM.

For the molecule `Cc1ncccc1-c1nc(C(=O)Nc2cc3sc(N4CCCCC4)nc3nc2N2CCCCC2)co1` [Example 52, N-(2,5-di(piperidin-1-yl)thiazolo[4,5-b]pyridin-6-yl)-2-(2-methylpyridin-3-yl)oxazole-4-carboxamide hydrochloride], the concentration for half-maximal inhibition (IC50) was under 50 nM. Next, `Cc1cc(-c2nc(C(=O)Nc3cc4sc(N5C[C@@H](C)O[C@@H](C)C5)nc4nc3N3CCCCC3)co2)ccn1` [Example 53, N-(2-((2S,6R)-2,6-dimethylmorpholino)-5-(piperidin-1-yl)thiazolo[4,5-b]pyridin-6-yl)-2-(2-methylpyridin-4-yl)oxazole-4-carboxamide]: under 50 nM; `Cc1ncccc1-c1nc(C(=O)Nc2cc3sc(N4CCOCC4)nc3nc2N2CCCCC2)co1` [Example 54, 2-(2-methylpyridin-3-yl)-N-(2-morpholino-5-(piperidin-1-yl)thiazolo[4,5-b]pyridin-6-yl)oxazole-4-carboxamide]: under 50 nM. Next, `O=C(Nc1cc2sc(N3CCOCC3)nc2nc1N1CCCCC1)c1coc(-c2cccnc2O)n1` [Example 55, 2-(2-hydroxypyridin-3-yl)-N-(2-morpholino-5-(piperidin-1-yl)thiazolo[4,5-b]pyridin-6-yl)oxazole-4-carboxamide]: under 50 nM; `COc1cc(-c2nc(C(=O)Nc3cc4sc(N5CCCCC5)nc4nc3N3CCCCC3)co2)ccn1` [Example 56, N-(2,5-di(piperidin-1-yl)thiazolo[4,5-b]pyridin-6-yl)-2-(2-methoxypyridin-4-yl)oxazole-4-carboxamide]: under 50 nM; `COc1ccc(-c2nc(C(=O)Nc3cc4sc(N5CCOCC5)nc4nc3N3CCCCC3)co2)cn1` [Example 57, 2-(6-methoxypyridin-3-yl)-N-(2-morpholino-5-(piperidin-1-yl)thiazolo[4,5-b]pyridin-6-yl)oxazole-4-carboxamide]: under 50 nM. As to `COc1cc(-c2nc(C(=O)Nc3cc4sc(N5CCOCC5)nc4nc3N3CCCCC3)co2)ccn1` [Example 58, 2-(2-methoxypyridin-4-yl)-N-(2-morpholino-5-(piperidin-1-yl)thiazolo[4,5-b]pyridin-6-yl)oxazole-4-carboxamide], the half-maximal inhibitory concentration (IC50) was under 50 nM.
